Laboratory results from patent US20260085262A1, “ACQ FLUORESCENCE PROBE COMPOSITION, CMC DETERMINATION METHOD, STAIN CLEANING CONCENTRATION DETERMINATION METHOD, DETERGENT DISPENSING CONTROL METHOD, AND DETERGENT DISPENSING CONTROL SYSTEM” (GUANGZHOU BLUEMOON INDUSTRIAL CO., LTD., priority 2024, published 2026).

Key:
[1] = cited from earlier work; for Flash point / Viscosity / Volatility/Boiling point: solvent; for Solvent solubility in water: classified with reference to solvent data in Pub Chem
[2] = Hansen solubility parameters (HSP), δ difference and HSP distance Ra
[3] = Solubility classification of probe molecule in solvent; conditions: ACQ probe molecule is CUR; label = solvent
[4] = document value; cited from earlier work
[5] = HSP distance between solvent and curcumin (CUR)
[6] = total δ of solvent minus total δ of curcumin (CUR)

Ra [2, 5]	δ difference [2, 6]	Probe solubility in solvent [3]	Ra ([2]; HSP distance between solvent and rhodamine B)	δ difference ([2]; total δ of solvent minus total δ of rhodamine B)	Compound	Flash point [1]	Viscosity [1]	Volatility/Boiling point [1]	Solvent solubility in water [1]	Dispersion δD [4]	Hydrogen bonding δH [4]	Polarity δH [4]	Total δ [4]
6.580 (MPa)^1/2	4.118 (MPa)^1/2	Soluble (0.01-0.1% is soluble)	–	–	OCCCCCO [1,5-Pentanediol]	129 °C	128 mPa · s	242 °C	–	–	–	–	–
15.204 (MPa)^1/2	−7.679 (MPa)^1/2	Insoluble	–	–	CCCCCC [n-Hexane]	–	–	69 °C	Insoluble	–	–	–	–
3.753 (MPa)^1/2	−2.022 (MPa)^1/2	Soluble (0.01-0.1% is soluble)	14.205 (MPa)^1/2	−9.896 (MPa)^1/2	CCCCCCCCO [n-Octanol]	81 °C	8.93 mPa · s	195 °C	Insoluble	16 (MPa)^1/2	11.9 (MPa)^1/2	5 (MPa)^1/2	20.557 (MPa)^1/2
